# Source: the supplement of paper PMC10307832
# What was measured:
# Test in all cases: relative viability (nuclei count vs DMSO), 5 days (fraction); higher = more cells survive
# Darinaparsin + Alpelisib = compound: C[As](C)SC[C@H](NC(=O)CC[C@H](N)C(=O)O)C(=O)NCC(=O)O [Darinaparsin] + Cc1nc(NC(=O)N2CCC[C@H]2C(N)=O)sc1-c1ccnc(C(C)(C)C(F)(F)F)c1 [Alpelisib] (partner 2 µM)
# Outline: (§1)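 Relative viability is defined as nuclei in treated wells over nuclei in vehicle wells. Duplicate plates were run and medians reported. Lung cancer cell lines in 1536-well plates were dosed by pin tool one day after seeding, with one drug or with a fixed anchor-drug dose plus five library-drug doses (not always all listed) in √10 steps, and nuclei were counted after 5 days.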
# [1] = compound: C[As](C)SC[C@H](NC(=O)CC[C@H](N)C(=O)O)C(=O)NCC(=O)O [Darinaparsin] + CC(=O)c1c(C)c2cnc(Nc3ccc(N4CCNCC4)cn3)nc2n(C2CCCC2)c1=O [Palbociclib] (partner 0.5 µM)
# Outline: as §1
# [2] = compound: C[As](C)SC[C@H](NC(=O)CC[C@H](N)C(=O)O)C(=O)NCC(=O)O [Darinaparsin] + Nc1ncn([C@H]2C[C@H](O)[C@@H](CO)O2)c(=O)n1 [Decitabine] (partner 2 µM)
# Outline: as §1
# AZ628 + Tozasertib = compound: CC1=C(C=C(C=C1)NC(=O)C2=CC(=CC=C2)C(C)(C)C#N)NC3=CC4=C(C=C3)N=CN(C4=O)C [AZ628] + Cc1cc(Nc2cc(N3CCN(C)CC3)nc(Sc3ccc(NC(=O)C4CC4)cc3)n2)n[nH]1 [Tozasertib] (partner 0.1 µM)
# Outline: as §1
Cell Line,relative viability (Darinaparsin + Alpelisib; first compound 0.08 µM),relative viability (Darinaparsin + Alpelisib; first compound 0.8 µM),relative viability (Darinaparsin + Alpelisib; first compound 2.53 µM),relative viability (Darinaparsin + Alpelisib; first compound 8 µM),relative viability ([1]; first compound 0.08 µM),relative viability ([1]; first compound 0.8 µM),relative viability ([1]; first compound 2.53 µM),relative viability ([1]; first compound 8 µM),relative viability ([2]; first compound 0.08 µM),relative viability ([2]; first compound 0.8 µM),relative viability ([2]; first compound 2.53 µM),relative viability ([2]; first compound 8 µM),relative viability (AZ628 + Tozasertib; first compound 0.08 µM),relative viability (AZ628 + Tozasertib; first compound 0.253 µM),relative viability (AZ628 + Tozasertib; first compound 0.8 µM),relative viability (AZ628 + Tozasertib; first compound 2.53 µM),relative viability (AZ628 + Tozasertib; first compound 8 µM)
UMC-11,0.861,0.981,0.683,1.15,0.309,0.342,0.295,0.345,0.563,0.574,0.636,0.677,0.228,0.21,0.194,0.212,0.203
LCLC-103H,0.945,0.982,0.915,1.11,0.49,0.427,0.49,0.533,0.788,0.722,0.715,0.8,0.525,0.52,0.473,0.523,0.384
LU99A,0.592,0.52,0.457,0.606,0.425,0.438,0.354,0.451,0.887,0.863,0.925,1.06,0.272,0.242,0.265,0.231,0.257
LXF-289,1.11,1.06,0.851,1.16,0.638,0.611,0.488,0.562,0.41,0.424,0.347,0.4,0.199,0.213,0.195,0.174,0.155
EPLC-272H,1.03,0.931,0.851,1.15,0.318,0.315,0.333,0.292,0.377,0.37,0.353,0.329,0.28,0.179,0.289,0.297,0.248
LOU-NH91,0.703,0.718,0.749,0.68,0.576,0.512,0.562,0.641,0.876,0.771,0.782,0.799,0.568,0.7,0.7,0.629,0.573
HCC-44,0.833,0.92,0.576,0.979,1.04,0.916,1.02,1,1.05,0.966,0.924,0.977,1.16,0.956,0.941,0.332,0.532
NCI-H1651,1.11,0.994,0.931,1.27,0.515,0.531,0.527,0.522,0.589,0.66,0.596,0.665,0.726,0.656,0.579,0.653,0.43
NCI-H1915,1.12,1.06,1.03,1.11,0.573,0.52,0.502,0.539,0.288,0.239,0.254,0.256,0.429,0.412,0.377,0.309,0.206
NCI-H2009,1.25,1.19,1.06,1.16,0.208,0.166,0.225,0.203,0.412,0.354,0.375,0.398,0.667,0.571,0.599,0.569,0.298
COR-L 105,1.34,1.21,–,1.08,0.456,0.373,0.397,0.382,0.642,0.711,0.621,0.666,0.387,0.374,0.359,0.315,0.376
ABC-1,0.966,1.16,1.07,1.28,0.879,0.6,0.744,0.729,1.16,1.09,1.1,0.953,0.226,0.166,0.215,0.201,0.175
NCI-H1793,0.716,0.935,0.643,0.958,0.359,0.374,–,0.369,0.461,0.483,–,0.485,0.488,0.335,0.372,0.264,0.18
NCI-H1792,0.684,0.575,0.493,1.03,0.634,0.633,0.524,0.754,0.694,0.512,–,0.588,–,–,–,–,–
ChaGo-K-1,–,–,–,–,0.95,0.958,0.856,1.06,0.464,0.499,0.506,0.577,0.241,0.231,0.218,0.212,0.171
NCI-H2342,–,–,–,–,0.539,0.527,0.493,0.538,0.712,0.688,0.76,0.702,0.616,0.529,0.673,0.514,0.471
NCI-H1975,0.758,0.777,0.483,0.704,0.693,0.634,0.504,0.606,0.382,0.429,0.425,0.374,0.794,0.562,0.449,0.453,0.163
CAL-12T,1.41,1.01,1.28,1.89,0.446,0.387,0.408,0.478,–,–,–,–,0.343,0.366,0.288,0.292,0.182
NCI-H1648,–,–,–,–,–,0.242,–,0.243,–,0.474,–,0.494,0.624,0.615,0.613,0.539,0.427
NCI-H358,0.922,0.87,0.817,0.994,0.141,0.128,0.127,0.139,0.189,0.21,0.231,0.193,0.123,0.114,0.1,0.117,0.0782

Cell Line,relative viability (Darinaparsin + Alpelisib; first compound 0.08 µM),relative viability (Darinaparsin + Alpelisib; first compound 0.8 µM),relative viability (Darinaparsin + Alpelisib; first compound 2.53 µM),relative viability (Darinaparsin + Alpelisib; first compound 8 µM),relative viability ([1]; first compound 0.08 µM),relative viability ([1]; first compound 0.8 µM),relative viability ([1]; first compound 2.53 µM),relative viability ([1]; first compound 8 µM),relative viability ([2]; first compound 0.08 µM),relative viability ([2]; first compound 0.8 µM),relative viability ([2]; first compound 2.53 µM),relative viability ([2]; first compound 8 µM),relative viability (AZ628 + Tozasertib; first compound 0.08 µM),relative viability (AZ628 + Tozasertib; first compound 0.253 µM),relative viability (AZ628 + Tozasertib; first compound 0.8 µM),relative viability (AZ628 + Tozasertib; first compound 2.53 µM),relative viability (AZ628 + Tozasertib; first compound 8 µM)
NCI-H3122,0.9,0.796,0.735,1.01,0.19,0.223,0.223,0.201,0.425,0.437,0.42,0.442,0.392,0.339,0.345,0.254,0.189
NCI-H2347,1.21,1.09,1.04,1.09,0.43,0.404,0.447,0.4,0.667,0.632,0.733,0.697,0.491,0.514,0.555,0.514,0.303
HCC-15,0.914,0.95,0.867,1.08,0.639,0.773,0.723,0.882,0.727,0.565,0.643,0.722,0.389,0.491,0.273,0.337,0.135
HCC-366,0.753,0.424,0.329,0.706,0.603,–,0.368,0.533,0.407,–,0.413,0.352,0.0912,0.0518,0.0747,0.0418,0.0451
BEN,0.963,1.09,0.956,1.33,0.492,0.445,0.488,0.43,0.724,0.72,0.812,0.811,0.511,0.498,0.444,0.471,0.383
NCI-H1993,0.712,0.681,0.688,0.678,0.586,0.743,0.59,0.68,0.626,0.584,0.608,0.586,0.613,0.617,0.591,0.602,0.555
NCI-H2405,0.735,0.734,0.693,0.755,0.532,0.492,0.473,0.606,0.802,0.716,0.663,0.735,0.5,0.637,0.539,0.529,0.457
NCI-H1703,0.612,0.345,0.283,0.39,–,–,–,–,–,–,–,–,–,–,–,–,–
Calu-6,1.14,0.975,1.02,0.945,–,–,–,–,–,–,–,–,–,–,–,–,–
NCI-H1650,–,–,–,–,0.377,0.321,0.325,0.375,0.325,0.41,0.397,0.359,0.469,0.494,0.337,0.368,0.206
IA-LM,1.02,0.663,1.4,0.965,–,–,–,–,–,–,–,–,–,–,–,–,–
A549,0.973,0.812,0.746,1.08,–,–,–,–,–,0.209,0.229,0.291,–,–,–,–,–
EBC-1,0.802,0.773,0.728,0.958,–,–,–,–,–,–,–,–,–,–,–,–,–
NCI-H1623,–,–,–,–,–,–,–,–,–,–,–,–,0.528,0.388,0.406,0.381,0.307
NCI-H522,–,–,–,–,1.11,1.01,0.957,1.03,0.626,0.627,0.711,0.705,0.578,0.547,0.542,0.523,0.57
NCI-H1299,1.09,1.18,0.904,1.18,–,–,–,–,–,–,–,–,–,–,–,–,–
NCI-H1563,0.903,0.91,1.01,0.894,–,–,–,–,–,–,–,–,–,–,–,–,–
SW 900,–,–,–,–,0.55,–,0.59,0.655,0.44,–,0.404,0.462,0.7,0.549,0.553,0.496,0.232
NCI-H2228,1.03,0.992,0.735,0.933,0.805,0.881,0.419,0.998,–,–,–,–,0.241,0.288,0.239,0.272,0.161
NCI-H596,0.511,0.621,0.421,0.602,–,–,–,–,1.02,1.11,1,1.15,0.768,0.827,0.956,0.886,0.848
